Literature values, collected in US9856441B2, “Soap bar” (COLGATE-PALMOLIVE COMPANY, priority 2013, dated 2018).

- maximum solubility of taurine in water (room temperature): about 6 weight %
- solubility of taurine itself (taurine not in salt form): up to 6%
SMILES: NCCS(=O)(=O)O [taurine, 2-aminoethanesulfonic acid]
